Tested on: Brassica napus variety 45H24
Assay: Herbicide resistance rating of canola variety 45H24 at standard recommended application rates
Type: in vivo
Settings: for Herbicide resistance (description): result in words
Excerpt: Herbicide Resistance: Resistance to various herbicides when applied at standard recommended application rates is expressed on a scale of 1 (resistant), 2 (tolerant), or 3 (susceptible).

With `O=C(O)CNCP(=O)(O)O` [Glyphosate] the “Herbicide resistance (description)” value was “resistant”, the “Herbicide resistance (description)” value (listed as glyphosate) was “resistance” and the “Herbicide resistance (mean rating)” value (scale 0 = not tested, 1 = resistant, 2 = tolerant, 3 = susceptible) was 1.00.
